Laboratory results from US20240336596A1, “PARP7 INHIBITOR AND USE THEREOF” (NOVOSTAR PHARMACEUTICALS, LTD., priority 2022, published 2024).

Assays:
NCI-H1373 cancer cells = assay: NCI-H1373 cancer cell growth inhibition (CellTiter-Glo, 144 hours); type: cell-based; conditions: Homo sapiens, 144 hours culture
Description: Promega CellTiter-Glo cell activity assay kit (Item No.: Promege-G7573) was used to determine the cell activity. 90 μL NCI-H1373 cell suspension (ATCC, catalog No. CRL-5866, batch No. 58078716) was spread into the pores of the 96-well plate with 3500 cells per well. After 24 hours, the 10 μL prepared 10× compound working solution was added into the pores of the cell culture plate with a final concentration of 10 μM. 3.3333 μM, 1.1111 μM, 0.3704 μM, 0.1235 μM, 0.0412 μM, 0.0137 μM, 0.0046 μM, 0.0015 μM, 0.0005 μM, 10 μL DMSO was added to the solvent control, and the final concentration of DMSO was 0.2%. The 0-day plates were collected for analysis, and after 144 hours of culture, the growth condition of cells was detected according to the instructions of CellTiter-Glo cell activity assay kit. Add 50 μL of CellTiter-Glo working liquid into each hole of the cell culture plate, shake the plates in the dark for 2 minutes until cell lysis, and place at room temperature for 10 minutes to detect the luminous signal (RUL) of each cell hole on the 2104En Vision board reader.
Calculation formula: Growth inhibition rate %=(1−(RLU compound−RLU Day0)/(RLU solvent control−RLU Day0))*100%. The dose-response curves of each compound were fitted by GraphPad Prism 8 to obtain IC50 values.
For the matter, IC50 values less than 0.1 μM are labeled “+++”, values from 0.1 to 1 μM are labeled “++”, and values greater than 1 to 10 μM are labeled “+”.

[1] = biological target: T1, recombinant human PARP7 protein (Homo sapiens, UniProt Q7Z3E1); assay: Inhibition of PARP7 biological enzyme activity (histone-coated plate, Biotin-NAD+, chemiluminescence); type: biochemical; conditions: recombinant human PARP7, Biotin-NAD+ substrate
T1 construct: purchased Abcam ab271651
T1 sequence (Q7Z3E1 1-657): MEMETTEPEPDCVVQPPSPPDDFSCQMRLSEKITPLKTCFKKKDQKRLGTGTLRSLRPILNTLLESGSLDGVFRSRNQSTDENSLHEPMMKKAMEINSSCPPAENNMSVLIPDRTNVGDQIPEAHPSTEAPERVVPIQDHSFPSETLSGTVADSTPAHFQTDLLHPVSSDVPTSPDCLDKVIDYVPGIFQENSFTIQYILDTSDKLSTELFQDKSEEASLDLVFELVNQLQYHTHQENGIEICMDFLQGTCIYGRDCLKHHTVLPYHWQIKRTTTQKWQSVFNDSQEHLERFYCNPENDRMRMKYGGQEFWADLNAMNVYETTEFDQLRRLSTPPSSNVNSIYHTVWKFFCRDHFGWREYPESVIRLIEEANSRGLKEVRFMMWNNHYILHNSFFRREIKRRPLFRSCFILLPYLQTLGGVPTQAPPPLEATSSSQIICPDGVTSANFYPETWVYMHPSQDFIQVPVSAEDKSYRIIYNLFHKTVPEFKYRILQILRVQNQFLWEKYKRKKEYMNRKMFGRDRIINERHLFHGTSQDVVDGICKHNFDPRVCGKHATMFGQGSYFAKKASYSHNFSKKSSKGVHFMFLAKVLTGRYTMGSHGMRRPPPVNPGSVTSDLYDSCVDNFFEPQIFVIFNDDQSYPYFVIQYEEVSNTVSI
Description: The recombinant human PARP7 protein kit (Abcam, catalog number ab271651) was used for the assay. According to the kit instructions, 30 μL of histone coating solution (1.5 μg/mL) was first applied to the 384 well holes of the reaction plate and coated at 4° C. for 2 hours. Then, the histone coated solution was washed off, and 50 μL sealing buffer was added to each well, and the sealing buffer was washed off after incubation at 25° C. for 60 minutes. 1000 times the concentration of the compound was 10 configured and diluted from 1 mM to 0.05 μM, and the configured compound was transferred to 384-well plates with 25 nL per well using Echo. The final concentration of the compound in the reaction system was 1000 nM, 333.33 nM, 111.11 nM, 37.03 nM, 12.34 nM, 4.11 nM, 1.37 nM, 0.45 nM, 0.15 nM, 0.05 nM, which was used as the test hole. At the same time, 25 nL DMSO was added to the negative control well and the positive control well. The PARP7 enzyme solution with a concentration of 1.67 times was prepared, and the PARP7 enzyme solution was added to the test hole and the positive control hole with 15 μL each, while the negative control hole was added with 15 μL base Buffer, and incubated at 25° C. for 15 minutes. Then 10 μL 2.5 times Biotin-NAD+ substrate solution was added and incubated at 25° C. for 60 min. After the reaction solution was washed off, the 384-well reaction plates were treated with closed buffer solution diluted with streptavidin-HRP (1:500), each well was 30 μL, and incubated at 25° C. for 30 min. After the HRP buffer was washed off, 30 μL HRP chemiluminescent substrate mixture was added to each well, and the luminescence signal (RLU) of each well was detected by Envision. Calculation formula: Inhibition rate %=(average positive control-RLU compound)/(average positive control-average negative control))*100%. The dose-response curves of each compound were fitted by GraphPad Prism 8 to get IC50 values. IC50 values less than 0.01 μM are labeled as “+++”, IC50 values from 0.01 to 0.1 µM are labeled as “++”, and IC50 values greater than 0.1 to 10.0 μM are labeled as “+”.

| Compound | IC50 (NCI-H1373 cancer cells) [nM] | IC50 [1] [nM] |
| --- | --- | --- |
| CC[C@@H](/C=N/OCC(=O)N1CCN(c2ncc(C(F)(F)F)cn2)CC1)Nc1cn[nH]c(=O)c1C(F)(F)F [Example 6, (S,E)-2-((6-oxo-5-(trifluoromethyl)-1,6-dihydropyridazin-4-yl)amino)butanal O-(2-oxo-2-(4-(5-(trifluoromethyl)pyrimidin-2-yl)piperazin-1-yl)ethyl)oxime] | 100 to 1000 | < 10 |
| C[C@@H](CONC(=O)CC1=CCN(c2ncc(-c3ccccc3F)cn2)CC1)Nc1cn[nH]c(=O)c1C(F)(F)F [Example 26, (S)-2-(1-(5-(2-fluorophenyl)pyrimidin-2-yl)-1,2,3,6-tetrahydropyridin-4-yl)-N-(2-((6-oxo-5-(trifluoromethyl)-1,6-dihydropyridazin-4-yl)amino)propoxy)acetamide] | < 100 | < 10 |
| CC(/C=N/OCC(=O)N1CCN(c2ccc(C(F)(F)F)cn2)CC1)c1cccc2c(=O)[nH]ncc12 (centres unmarked) [Example 19, (E)-2-(1-oxo-1,2-dihydrophthalazin-5-yl)propanal O-(2-oxo-2-(4-(5-(trifluoromethyl)pyridin-2-yl)piperazin-1-yl)ethyl) oxime] | 1000 to 10000 | < 10 |
| C[C@@H](/C=N/OCC(=O)N1CCN(c2ncc(C(F)(F)F)cn2)CC1)Nc1cn[nH]c(=O)c1C(F)(F)F [Example 5, (S,E)-2-((6-oxo-5-(trifluoromethyl)-1,6-dihydropyridazin-4-yl)amino) propanal O-(2-oxo-2-(4-(5-(trifluoromethyl)pyrimidin-2-yl)piperazin-1-yl)ethyl) oxime] | < 100 | < 10 |
| C[C@@H](CONC(=O)/C=C1/CCN(c2ncc(C(F)(F)F)cn2)CC1F)Nc1cn[nH]c(=O)c1C(F)(F)F (stereo partly drawn) [Example 24, (Z)-2-(3-fluoro-1-(5-(trifluoromethyl)pyrimidin-2-yl)piperidin-4-ylidene)-N—((S)-2-((6-oxo-5-(trifluoromethyl)-1,6-dihydropyridazin-4-yl)amino)propoxy)acetamide] | 100 to 1000 | < 10 |
| CC(/C=N/OCC(=O)N1CCN(c2ncc(C(F)(F)F)cn2)CC1)c1cccc2c(=O)[nH]ncc12 (centres unmarked) [Example 18, (E)-2-(1-oxo-1,2-dihydrophthalazin-5-yl)propanal O-(2-oxo-2-(4-(5-(trifluoromethyl)pyrimidin-2-yl)piperazin-1-yl)ethyl) oxime] | 1000 to 10000 | < 10 |
| O=C(CO/N=C1\CCC[C@@H]1Nc1cn[nH]c(=O)c1C(F)(F)F)N1CCN(c2ncc(C(F)(F)F)cn2)CC1 [Example 9, (S,E)-5-((2-((2-oxo-2-(4-(5-(trifluoromethyl)pyrimidin-2-yl)piperazin-1-yl)ethoxy)imino)cyclopentyl)amino)-4-(trifluoromethyl)pyridazin-3(2H)-one] | 100 to 1000 | < 10 |
| C[C@@H](CONC(=O)/C=C1\CCN(c2ncc(C(F)(F)F)cn2)CC1F)Nc1cn[nH]c(=O)c1C(F)(F)F (stereo partly drawn) [Example 23, (E)-2-(3-fluoro-1-(5-(trifluoromethyl)pyrimidin-2-yl)piperidin-4-ylidene)-N—((S)-2-((6-oxo-5-(trifluoromethyl)-1,6-dihydropyridazin-4-yl)amino)propoxy)acetamide] | 100 to 1000 | < 10 |
| O=C(CO/N=C/[C@@H](Nc1cn[nH]c(=O)c1C(F)(F)F)C1CC1)N1CCN(c2ncc(C(F)(F)F)cn2)CC1 [Example 10, (S,E)-2-cyclopropyl-2-((6-oxo-5-(trifluoromethyl)-1,6-dihydropyridazin-4-yl)amino)acetaldehyde O-(2-oxo-2-(4-(5-(trifluoromethyl)pyrimidin-2-yl)piperazin-1-yl)ethyl) oxime] | 100 to 1000 | < 10 |
| C[C@@H](CONC(=O)C(F)C1=CCN(c2ncc(C(F)(F)F)cn2)CC1)Nc1cn[nH]c(=O)c1C(F)(F)F (stereo partly drawn) [Example 22, 2-fluoro-N—((S)-2-((6-oxo-5-(trifluoromethyl)-1,6-dihydropyridazin-4-yl)amino)propoxy)-2-(1-(5-(trifluoromethyl)pyrimidin-2-yl)-1,2,3,6-tetrahydropyridin-4-yl) acetamide] | < 100 | < 10 |
| C[C@@H](/C=N/OCC(=O)N1CCN(c2ccc(C(F)(F)F)cn2)CC1)Nc1cn[nH]c(=O)c1C(F)(F)F [Example 12, (S,E)-2-((6-oxo-5-(trifluoromethyl)-1,6-dihydropyridazin-4-yl)amino)propanal O-(2-oxo-2-(4-(5-(trifluoromethyl)pyridin-2-yl)piperazin-1-yl)ethyl) oxime] | 100 to 1000 | < 10 |

More lines, now with the values ahead:

| IC50 (NCI-H1373 cancer cells) [nM] | IC50 [1] [nM] | Compound |
| --- | --- | --- |
| < 100 | < 10 | CC1CN(c2ncc(C3CC3)cn2)CC=C1CC(=O)NOC[C@H](C)Nc1cn[nH]c(=O)c1C(F)(F)F (stereo partly drawn) [Example 30, 2-(1-(5-cyclopropylpyrimidin-2-yl)-3-methyl-1,2,3,6-tetrahydropyridin-4-yl)-N—((S)-2-((6-oxo-5-(trifluoromethyl)-1,6-dihydropyridazin-4-yl)amino)propoxy)acetamide] |
| 100 to 1000 | < 10 | C[C@@H](CONC(=O)CC1CCN(c2ncc(C(F)(F)F)cn2)CC1F)Nc1cn[nH]c(=O)c1C(F)(F)F (stereo partly drawn) [Example 53, 2-(3-fluoro-1-(5-(trifluoromethyl)pyrimidin-2-yl)piperidin-4-yl)-N—((S)-2-((6-oxo-5-(trifluoromethyl)-1,6-dihydropyridazin-4-yl)amino)propoxy)acetamide] |
| 100 to 1000 | < 10 | CC1=C(CC(=O)NOC[C@H](C)Nc2cn[nH]c(=O)c2C(F)(F)F)CCN(c2ncc(-c3ccccc3F)cn2)C1 [Example 28, (S)-2-(1-(5-(2-fluorophenyl)pyrimidin-2-yl)-5-methyl-1,2,3,6-tetrahydropyridin-4-yl)-N-(2-((6-oxo-5-(trifluoromethyl)-1,6-dihydropyridazin-4-yl)amino)propoxy)acetamide] |
| 100 to 1000 | < 10 | C[C@@H](CONC(=O)CC1CCN(c2ncc3cc(F)ccc3n2)CC1)Nc1cn[nH]c(=O)c1C(F)(F)F [Example 39, (S)-2-(1-(6-fluoroquinazolin-2-yl)piperidin-4-yl)-N-(2-((6-oxo-5-(trifluoromethyl)-1,6-dihydropyridazin-4-yl)amino)propoxy)acetamide] |
| 100 to 1000 | < 10 | C[C@@H](CONC(=O)CC1CCN(c2ncc3cc[nH]c3n2)CC1)Nc1cn[nH]c(=O)c1C(F)(F)F [Example 38, (S)-2-(1-(7H-pyrrolo(2,3-d)pyrimidin-2-yl)piperidin-4-yl)-N-(2-((6-oxo-5-(trifluoromethyl)-1,6-dihydropyridazin-4-yl)amino)propoxy)acetamide] |
